Patent publication US5132293A, “Enzymic alteration of hair growth” (priority 1991, dated 1992)
Read-outs that look alike come from different tables or passages of the source.

What was measured:
[1] = test system: brain 4-aminobutyric acid levels; details: transformation catalyzed by mitochondrial monoamine oxidase; cited from earlier work
hamster flank organ = details: topical application; cited from earlier work
flank organ hair = assay: Hamster flank organ hair growth inhibition by topical inhibitor (hair mass, treated organ vs vehicle-treated organ); type: in vivo, male intact Golden Syrian hamsters; details: for Flank Organ Hair Mass, Treated: ± SE; for Hair Growth Inhibition: percent decrease vs vehicle-treated organ
Description: A series of compositions was prepared each containing a given concentration of specified inhibitor in the foregoing vehicle, as listed in Table 1 below.
Four groups (eight animals in each group) of male intact Golden Syrian hamsters were provided. These animals were considered acceptable models for human beard hair growth in that they display oval shaped flank organs, one on each side, each about 8 mm in major diameter, which grow thick black and coarse hair similar to human beard hair. These organs produce hair in response to androgens in the hamster. The flank organs of each hamster were depilated by applying a thioglycolate-based chemical depilatory (Surgex), and to one organ of each animal was applied 10 μL. of vehicle alone once a day, while to the other organ of each animal was applied an equal amount of vehicle containing inhibitor. After 14 such applications (Mon.-Fri.) over a period of 18 days, the flank organs were shaved and the amount of recovered hair (hair mass) from each was weighed. The extent of reduction in hair growth by the inhibitor was expressed as the percent decrease in hair mass on the organ treated with inhibitor as compared to the organ treated with vehicle alone. As a control, one group of eight animals had both flank organs of each animal treated with vehicle alone.
The same procedure was followed as in Example 1 except that the vehicle used for the compositions consisted of water alone.
The same test procedure was followed except that the compositions were applied to the hamster flank organs every day for fifteen successive days, at which time hair mass was measured; the results were as follows: […]

hair growth = details: intact males; Table 3, Group VI vs. Group X; cited from earlier work
sebum excretion = details: topical, cited from earlier work
sebaceous glands = details: cited from earlier work
[2] = Table 1, 5% of each inhibitor in water/ethanol/glycol vehicle, 10 μL once a day, 14 applications over 18 days
[3] = Table 1, 5% of each inhibitor in water/ethanol/glycol vehicle, 14 applications over 18 days
[4] = Table 3, 5% of each inhibitor, Example 1 vehicle, every day for fifteen successive days

C#CC(N)CCCN (stereo not shown) [5-hexyne-1,4-diamine]
brain 4-aminobutyric acid levels [1]: increases in brain 4-aminobutyric acid levels

CCC[C@]1(O)CC[C@H]2[C@@H]3CCC4=CC(=O)CC[C@]4(C)[C@H]3CC[C@@]21C [17β-hydroxy-17α-propylandrost-4-en-3-one]
reduction in hair growth of the hamster flank organ (hamster flank organ): substantial reduction in hair growth | size of the flank organ (hamster flank organ): reduction in the size of the flank organ

CCC(=NNC(=N)N)C(CC)=NNC(=N)N [DEGBG, diethylglyoxal bis(guanylhydrazone)]
Flank Organ Hair Mass, Treated (flank organ hair; Table 2, 2.5% inhibitor, vehicle water alone, 14 applications over 18 days): 2.62 ± .15 mg | Hair Growth Inhibition (flank organ hair; Table 2, 2.5% inhibitor, vehicle water alone): 15.9 ± 5.2%

NCCC[C@](N)(C(=O)O)C(F)F [DFMO, 2-(difluoromethyl)-ornithine]
Flank Organ Hair Mass, Treated (flank organ hair; [2]): 0.99 ± .08 mg | Hair Growth Inhibition (flank organ hair; [3]): 64.3 ± 3.7% | Flank Organ Hair Mass, Treated (flank organ hair; Table 2, 5% inhibitor, vehicle water alone, 14 applications over 18 days): 2.70 ± .22 mg | Hair Growth Inhibition (flank organ hair; Table 2, 5% inhibitor, vehicle water alone): 18.8 ± 3.7% | Hair Growth Inhibition (flank organ hair; [4]): 44.4 ± 18.2% | Flank Organ Hair Mass, Treated (flank organ hair; [4]): 0.49 ± .14 mg

CN(CCON)C[C@H]1O[C@@H](n2cnc3c(N)ncnc32)[C@H](O)[C@@H]1O [MAOEA, 5'-deoxy-5'-[N-methyl-N-(2-[aminooxy]ethyl)] aminoadenosine]
Flank Organ Hair Mass, Treated (flank organ hair; [2]): 2.03 ± .18 mg | Hair Growth Inhibition (flank organ hair; [3]): 29.4 ± 5.9%

CC(C=NNC(=N)N)=NNC(=N)N [MGBG, methylglyoxal bis(guanylhydrazone)]
Flank Organ Hair Mass, Treated (flank organ hair; [2]): 1.54 ± .22 mg | Hair Growth Inhibition (flank organ hair; [3]): 40.3 ± 7.4% | Hair Growth Inhibition (flank organ hair; [4]): 42.3 ± 8.2% | Flank Organ Hair Mass, Treated (flank organ hair; [4]): 0.56 ± .11 mg

CC(=O)[C@H]1CC[C@H]2[C@@H]3CCC4=CC(=O)CC[C@]4(C)[C@H]3CC[C@]12C [progesterone]
effect on inhibition of hair growth (hair growth): doubtful | reducing sebum excretion rates (sebum excretion; females): effective in reducing sebum excretion rates in females | reducing sebum excretion rates (sebum excretion; males): without effect in males | effectiveness of progesterone (sebaceous glands; female): effective in the female | effectiveness of progesterone (sebaceous glands; male): not in the male
